Values quoted from earlier work as cited in article PMC11261219 (Clinical and Molecular Hepatology, 2024).

Legend:
[1] = tested on: HBV DNA and HBV RNA; conditions: added to patients taking NUCs, versus NUCs alone
[2] = tested on: HBV; conditions: after 3 years

Compound | suppression of HBV DNA and HBV RNA [1] | functional cure, patients [2]
O=C(NCc1cnc(C(F)(F)F)s1)c1ccc2c(c1)NC(=O)c1ccccc1S2(=O)=O [vebicorvir] | further suppressed HBV DNA and HBV RNA more than with NUCs alone | –
pegylated interferon [pegIFN] | – | approximately 11%
